The target in assay [1] is T1, CYP11B2 (Homo sapiens, UniProt P19099).
T1 sequence (P19099 25-503): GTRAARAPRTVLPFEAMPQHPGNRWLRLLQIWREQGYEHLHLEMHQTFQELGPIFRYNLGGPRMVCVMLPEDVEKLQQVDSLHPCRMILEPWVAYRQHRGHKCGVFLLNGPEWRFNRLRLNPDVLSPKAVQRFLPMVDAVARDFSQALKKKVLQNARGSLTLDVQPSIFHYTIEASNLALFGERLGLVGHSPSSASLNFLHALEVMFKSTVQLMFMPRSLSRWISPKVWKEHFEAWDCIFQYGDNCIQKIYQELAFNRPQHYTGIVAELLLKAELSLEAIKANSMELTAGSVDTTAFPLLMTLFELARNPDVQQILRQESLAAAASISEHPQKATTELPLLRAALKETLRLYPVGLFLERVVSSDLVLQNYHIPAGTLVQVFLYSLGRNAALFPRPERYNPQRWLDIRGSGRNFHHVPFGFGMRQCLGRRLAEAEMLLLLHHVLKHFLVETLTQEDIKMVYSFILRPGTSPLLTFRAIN
To be noted: reported by Stefanie Hahner et al., J Clin Endocrinol Metab 2008; cited from earlier work.

Assay [2] deals with T1, CYP11B2. In words: Inhibition of aldosterone production in V79-B2 cells expressing human CYP11B2 (ELISA). The arrangement: expressed in transfected cells; host or cells: Chinese hamster lung-derived fibroblast V79 cells (V79-B2). The format is cell-based. To be noted: for Selectivity factor: IC50 against cortisol production/IC50 against aldosterone production, selectivity factor for CYP11B2; for IC50: V79-B2 cells, corticosterone 100 nmol/L, 4 hours, unlabeled form, read-out: IC50 against aldosterone production; for selectivity factor compared with IMTO: selectivity factor for CYP11B2, Table 6. The protocol: (§1) Chinese hamster lung-derived fibroblast V79 cells (obtained from European Collection of Cell Cultures (ECACC) via DS Pharma Biomedical Co., Ltd.) were allowed to express human CYP11B2 and human CYP11B1 to prepare V79-B2 and V79-B1, respectively. V79-B2 or V79-B1 was inoculated to a microplate and cultured overnight. Then, corticosterone and 11-deoxycortisol were added at final concentrations of 100 nmol/L into the culture supernatants of V79-B2 and V79-B1, respectively. At the same time, iodometomidate (IMTO) or the unlabeled form of PAY15, PAY21, PAY27, or PAY54 synthesized in Example 2, 5, 8, or 12 was added at a final concentration of 10^−4 to 10^3 nmol/L into the culture supernatants. One hour later, the culture supernatant of V79-B1 was recovered, and the concentration of cortisol, which is a metabolite of CYP11B1, was measured by enzyme-linked immunosorbent assay (ELISA). Four hours later, the culture supernatant of V79-B2 was recovered, and the concentration of aldosterone, which is a metabolite of CYP11B2, was measured by ELISA. […] IC50 against cortisol production/IC50 against aldosterone production was calculated and used as a selectivity factor for CYP11B2.
Background: In an ELISA, binding on a coated surface is turned into a signal by an enzyme label.

In a further assay the target is T2, human CYP11B1 (Homo sapiens, UniProt P15538).
T2 construct: expressed in transfected cells; host or cells: Chinese hamster lung-derived fibroblast V79 cells (V79-B1)
T2 sequence (P15538 25-503): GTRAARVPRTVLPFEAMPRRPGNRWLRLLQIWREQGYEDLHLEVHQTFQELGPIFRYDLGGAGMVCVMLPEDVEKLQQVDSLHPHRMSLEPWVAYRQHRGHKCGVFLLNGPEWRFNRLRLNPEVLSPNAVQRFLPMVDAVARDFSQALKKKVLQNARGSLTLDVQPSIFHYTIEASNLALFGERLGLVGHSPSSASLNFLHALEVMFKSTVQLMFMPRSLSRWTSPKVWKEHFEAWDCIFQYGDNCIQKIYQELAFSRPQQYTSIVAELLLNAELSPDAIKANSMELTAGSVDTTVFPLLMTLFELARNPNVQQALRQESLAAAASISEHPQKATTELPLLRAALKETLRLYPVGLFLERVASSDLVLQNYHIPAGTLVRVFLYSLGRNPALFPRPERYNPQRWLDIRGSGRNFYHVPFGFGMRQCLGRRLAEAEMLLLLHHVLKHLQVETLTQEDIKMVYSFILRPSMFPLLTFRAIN
Kind of assay: Inhibition of cortisol production in V79-B1 cells expressing human CYP11B1 (ELISA). The class given is cell-based. To be noted: 11-deoxycortisol 100 nmol/L, 1 hour, unlabeled form, read-out: IC50 against cortisol production. Here is the method:
as §1

Read-outs that look alike come from different tables or passages of the source.

On to `C[C@H](c1ccccc1)n1cncc1C(=O)OCCF` [FETO, fluoroetomidate], for which, on CYP11B2 [1], the Selectivity factor is on record as 0.145.

Turning to `COC(=O)c1cncn1[C@H](C)c1ccc(I)cc1` [IMTO, iodometomidate, reference compound], the Selectivity factor was 0.93 on CYP11B2 [2] and 0.261 on CYP11B2 [1]. In addition, the IC50 (as a rule, the concentration at which inhibition is half-maximal) came out at 0.14 nM at CYP11B2 [2] and 0.13 nM on human CYP11B1.

For `COC(=O)c1cncn1C(C)c1ccccc1` (stereo not shown) [MTO, metomidate], at CYP11B2 [1], the Selectivity factor is on record as 0.275 and the “selectivity for CYP11B1 versus CYP11B2” value is recorded as “higher selectivity for steroid 11β-hydroxylase (CYP11B1) than that for aldosterone synthase (CYP11B2)”.

With `O=C1CCc2cc(-c3cncc(I)c3)cc3c2N1CC3` [PAY21, 8-(5-iodopyridin-3-yl)-1,2,5,6-tetrahydro-4H-pyrrolo[3,2,1-ij]quinolin-4-one], at CYP11B2 [2], the Selectivity factor is recorded as 26.09, the IC50 stood at 0.81 nM and the “selectivity factor compared with IMTO” value was “higher than that of IMTO”. Further, at human CYP11B1, the IC50 came out at 21.1 nM.

`O=C1CCc2cc(-c3cncc(OCCF)c3)cc3c2N1CCC3` [PAY27, 9-(5-(2-fluoroethyloxy)pyridin-3-yl)-1,2,6,7-tetrahydro-5H-pyrido[3,2,1-ij]quinolin-3-one]: on CYP11B2 [2], the Selectivity factor is reported as 81.42, the IC50 stood at 0.97 nM and the “selectivity factor compared with IMTO” value is on record as “higher than that of IMTO”. For the same compound, on human CYP11B1, the IC50 worked out at 78.6 nM.

`O=C1CCc2cc(-c3cncc(OCCF)c3)cc3c2N1CC3` [PAY54, 8-(5-(2-fluoroethyloxy)pyridin-3-yl)-1,2,5,6-tetrahydro-4H-pyrrolo[3,2,1-ij]quinolin-4-one]: on CYP11B2 [2], the Selectivity factor amounted to 55.49, the IC50 worked out at 0.24 nM and the “selectivity factor compared with IMTO” value is listed as “higher than that of IMTO”. The IC50 at human CYP11B1 came out at 13.1 nM.

Source of the values: patent publication US20140187784A1, “RADIOACTIVE QUINOLINONE DERIVATIVE AND PHARMACEUTICAL DRUG COMPRISING THE SAME” (Nihon Medi-Physics Co., Ltd., priority 2012, published 2014).
